The values below come from patent US9708336B2, “Metallo-beta-lactamase inhibitors” (priority 2014, dated 2017).

The target of one assay is VIM-1 (Pseudomonas aeruginosa (strain ATCC 15692 / DSM 22644 / CIP 104116 / JCM 14847 / LMG 12228 / 1C / PRS 101 / PAO1), UniProt A0A0F7KYQ8). The experiment in a line: Enzyme activity: determination of IC50, fluorescence assay with CCF2-FA substrate (VIM-1). It counts as biochemical.
A further assay concerns the target NDM-1 (Klebsiella pneumoniae, UniProt C7C422). The experiment in a line: biochemical. The following applies: read-out: NDM-1 IC50. It counts as biochemical.
Another assay concerns the target IMP-1 (Serratia marcescens, UniProt P52699). As to the kind of experiment: biochemical. The class given is biochemical. As to conditions: read-out: IMP-1 IC50.
In assay [1] the test system is Klebsiella pneumoniae expressing VIM-1 (IHMA599644). The experiment in a line: Antibiotic potentiation activity: synergistic concentration (MITC95) with imipenem, OD600 growth. The following applies: for Klebsiella pneumoniae expressing VIM-1 (IHMA 599644) MITC95: concentration giving 95% inhibition of bacterial growth; for Klebsiella pneumoniae MITC95: Klebsiella pneumoniae expressing VIM-1 (IHMA599644), 95% growth inhibition. It counts as cell-based. On the procedure:
(§1) Antibiotic Potentiation Activity: Determination of Synergistic Concentration
(§2) The bacterial strains tested included the clinical strains Escherichia coli expressing NDM-1 (CLB30005, CLB30016), Serratia marcescens expressing IMP-1 (CL5741), and Klebsiella pneumoniae expressing VIM-1 (IHMA599644) Inhibitor activity was measured in the presence and absence of imipenem in a 384-well microplate.
(§3) The clinical strains CLB30016, CL5741 and IHMA599644 were grown on trypticase soy agar containing 5% sheep's blood. The clinical strain CLB30005 was grown on Mueller Hinton broth agar containing 8 ug/ml imipenem. The bacteria on agar plates were incubated at 35° C. with humidity overnight. The following day, individual colonies from each clinical strain were picked and resuspended in 5 ml saline to attain an OD600 of 0.14, 0.11, 0.15 and 0.13, for CLB30005, CLB30016, CL5741 and IHMA599644, respectively. These were further diluted 1:100 into 1.1×CAMHB and used to inoculate the test wells as described below.
(§4) Imipenem in 10 mM 3-(N-morpholino)propanesulfonic acid (MOPS, pH 7) was stored in single use aliquots at −80° C. […] On the day of the assay, 4 μl of antibiotic was added to 45 ul of bacteria followed by 1 μl of test compound and mixed by pipetting and with an orbital shaker. The concentration of antibiotic used in the assay was 4 μg/ml, or optionally 1 μg/ml. Microplates were covered and incubated at 35° C. for 22 hours to 24 hours. At the end of the incubation, absorbance was determined using a spectrophotometer.

Assay [2] relates to Escherichia coli expressing NDM-1 (CLB30016). Described as above. It counts as cell-based. The following applies: for Escherichia coli expressing NDM-1 (CLB 30016) MITC95: concentration giving 95% inhibition of bacterial growth; for Escherichia coli MITC95: Escherichia coli expressing NDM-1 (CLB30016), 95% growth inhibition. On the procedure:
as §1, §2, §3, §4

The subject of assay [3] is Serratia marcescens expressing IMP-1 (CL5741). The assay is described as above. The class given is cell-based. As to conditions: for Serratia marcescens expressing IMP-1 (CL5741) MITC95: concentration giving 95% inhibition of bacterial growth; for Serratia marcescens MITC95: Serratia marcescens expressing IMP-1 (CL5741), 95% growth inhibition. On the procedure: as §1, §2, §3, §4

[4] abbreviates: fluorescence assay with CCF2-FA substrate; read-out: VIM-1 IC50.
Where [5] appears, read: fluorescence assay with CCF2-FA substrate.
The mark [6] stands for this setting: NDM-1 enzyme, CCF2-FA fluorescence assay.
Setting [7] is: IMP-1 enzyme, CCF2-FA fluorescence assay.

In general, IC50 refers to the point on the concentration scale where inhibition reaches its midpoint.

Where two headings read alike, the source gives them in different places.

Chain of NDM-1 (C7C422 whole entry, looked up, species assumed): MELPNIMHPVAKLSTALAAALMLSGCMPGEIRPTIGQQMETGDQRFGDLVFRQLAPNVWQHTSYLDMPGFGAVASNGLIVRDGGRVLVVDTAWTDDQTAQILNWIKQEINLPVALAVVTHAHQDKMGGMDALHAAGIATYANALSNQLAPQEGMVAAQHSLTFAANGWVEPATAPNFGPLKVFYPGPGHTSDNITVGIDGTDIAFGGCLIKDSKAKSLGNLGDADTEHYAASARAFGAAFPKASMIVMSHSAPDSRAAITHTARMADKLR
Chain of IMP-1 (P52699 whole entry, looked up): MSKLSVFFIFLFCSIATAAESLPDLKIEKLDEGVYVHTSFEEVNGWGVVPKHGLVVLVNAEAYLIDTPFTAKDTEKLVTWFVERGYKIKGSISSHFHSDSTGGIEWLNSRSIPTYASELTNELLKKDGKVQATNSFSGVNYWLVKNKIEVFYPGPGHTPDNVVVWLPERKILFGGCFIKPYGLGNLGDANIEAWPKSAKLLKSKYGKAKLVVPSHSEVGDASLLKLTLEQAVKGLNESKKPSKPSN

For the compound `NS(=O)(=O)c1cccc(-c2ccc(C(=O)NC3CCOC3)cc2)c1-c1nn[nH]n1` (stereo not shown) [Example 2, 3′-sulfamoyl-N-(tetrahydrofuran-3-yl)-2′-(2H-tetrazol-5-yl)biphenyl-4-carboxamide], the half-inhibitory concentration (IC50) at VIM-1 (setting [4]) amounted to 1910 nM; on NDM-1 (setting [5]), 52.3 nM; on IMP-1 (setting [5]), 262 nM.
Take `NS(=O)(=O)c1cccc(-c2ccc(CO)cc2)c1-c1nnn[nH]1` [Example 26, 4′-(hydroxymethyl)-2-(1H-tetrazol-5-yl)biphenyl-3-sulfonamide]: the IC50 on VIM-1 (setting [4]) turned out to be 58.4 nM; on NDM-1 (setting [5]), 2.43 nM; at IMP-1 (setting [5]), 46.2 nM. Besides, the “Klebsiella pneumoniae expressing VIM-1 (IHMA 599644) MITC95” value in assay [1] stood at 50 µM.
With `NS(=O)(=O)c1cccc(-c2ccc3ncnn3c2)c1-c1nnn[nH]1` [Example 111, 3-([1,2,4]triazolo[1,5-a]pyridin-6-yl)-2-(1H-tetrazol-5-yl)benzenesulfonamide], in assay [1], the “Klebsiella pneumoniae expressing VIM-1 (IHMA 599644) MITC95” value is 18.75 µM. Besides, the “Escherichia coli expressing NDM-1 (CLB 30016) MITC95” value in assay [2] was determined as 1.172 µM. Besides, in assay [3], the “Serratia marcescens expressing IMP-1 (CL5741) MITC95” value is 9.375 µM.
In the case of `CN1CCN(c2cc(-c3cccc(S(N)(=O)=O)c3-c3nnn[nH]3)ccn2)CC1` [Example 116, 3-(2-(4-methylpiperazin-1-yl)pyridin-4-yl)-2-(1H-tetrazol-5-yl)benzenesulfonamide], the “Klebsiella pneumoniae expressing VIM-1 (IHMA 599644) MITC95” value in assay [1] was 200 µM. Further, in assay [2], the “Escherichia coli expressing NDM-1 (CLB 30016) MITC95” value turned out to be 1.563 µM. In assay [3], the “Serratia marcescens expressing IMP-1 (CL5741) MITC95” value amounted to 9.375 µM. In addition, the IC50 at NDM-1 (setting [5]) was determined as 5.43 nM; at IMP-1 (setting [5]), 226 nM.
For the compound `NS(=O)(=O)c1cccc(-c2ccc3nonc3c2)c1-c1nnn[nH]1` [Example 130, 3-(benzo[c][1,2,5]oxadiazol-5-yl)-2-(1H-tetrazol-5-yl)benzenesulfonamide], the “Klebsiella pneumoniae expressing VIM-1 (IHMA 599644) MITC95” value in assay [1] was 37.5 µM. In addition, in assay [2], the “Escherichia coli expressing NDM-1 (CLB 30016) MITC95” value was 1.172 µM. Further, the “Serratia marcescens expressing IMP-1 (CL5741) MITC95” value in assay [3] was determined as 9.375 µM. Further, the half-maximal inhibitory concentration (IC50) came to 10.6 nM on NDM-1 (setting [5]) and 267 nM on IMP-1 (setting [5]).
Turning to `NS(=O)(=O)c1cccc(C2=CCS(=O)(=O)CC2)c1-c1nnn[nH]1` [Example 141, 3-(1,1-dioxido-3,6-dihydro-2H-thiopyran-4-yl)-2-(1H-tetrazol-5-yl)benzenesulfonamide], the “Klebsiella pneumoniae expressing VIM-1 (IHMA 599644) MITC95” value in assay [1] worked out at 200 µM. The “Escherichia coli expressing NDM-1 (CLB 30016) MITC95” value in assay [2] was found to be 0.7813 µM. In addition, the “Serratia marcescens expressing IMP-1 (CL5741) MITC95” value in assay [3] is 37.5 µM. The IC50 was determined as 61.5 nM at NDM-1 (setting [5]) and 2340 nM at IMP-1 (setting [5]).
As to `NS(=O)(=O)c1cccc(CCc2cccnc2)c1-c1nnn[nH]1` [Example 143, 3-(2-pyridin-3-ylethyl)-2-(1H-tetrazol-5-yl)benzenesulfonamide], in assay [1], the “Klebsiella pneumoniae expressing VIM-1 (IHMA 599644) MITC95” value came to 200 µM. Moreover, the “Escherichia coli expressing NDM-1 (CLB 30016) MITC95” value in assay [2] came out at 0.7813 µM. Also, the “Serratia marcescens expressing IMP-1 (CL5741) MITC95” value in assay [3] came out at 4.688 µM. Moreover, the half-maximal inhibitory concentration (IC50) at NDM-1 (setting [5]) was 20.7 nM; at IMP-1 (setting [5]) it was 98.5 nM.
Regarding `NS(=O)(=O)c1cccc(C2CCN(C(=O)C3(c4ccccc4)CC3)CC2)c1-c1nn[nH]n1` [Example 176, 3-(1-(1-phenylcyclopropanecarbonyl)piperidin-4-yl)-2-(2H-tetrazol-5-yl)benzenesulfonamide], the figures for the IC50 on VIM-1 (setting [4]), on NDM-1 (setting [5]) and at IMP-1 (setting [5]) were 148 nM, 6.43 nM and 72.8 nM, respectively.
On to `NS(=O)(=O)c1nccc(N2CCC(CN3CCOCC3)CC2)c1-c1nnn[nH]1` [Example 224, 4-[4-(morpholin-4-ylmethyl)piperidin-1-yl]-3-(1H-tetrazol-5-yl)pyridine-2-sulfonamide], for which the “Klebsiella pneumoniae expressing VIM-1 (IHMA 599644) MITC95” value in assay [1] is 200 µM. Moreover, the “Escherichia coli expressing NDM-1 (CLB 30016) MITC95” value in assay [2] is 4.688 µM. For the same compound, the “Serratia marcescens expressing IMP-1 (CL5741) MITC95” value in assay [3] was 18.75 µM. Further, the 50% inhibitory concentration (IC50) on NDM-1 (setting [5]) turned out to be 247 nM.
As for `NS(=O)(=O)c1nccc(NCc2ccccc2)c1-c1nnn[nH]1` [Example 235, 4-(benzylamino)-3-(1H-tetrazol-5-yl)pyridine-2-sulfonamide], in assay [1], the “Klebsiella pneumoniae expressing VIM-1 (IHMA 599644) MITC95” value was >200 µM. In assay [2], the “Escherichia coli expressing NDM-1 (CLB 30016) MITC95” value is 12.5 µM. Besides, in assay [3], the “Serratia marcescens expressing IMP-1 (CL5741) MITC95” value was found to be 200 µM. Besides, the IC50 at NDM-1 (setting [5]) is 142 nM; at IMP-1 (setting [5]), 3440 nM.
As for `Cc1cc(-c2nnn[nH]2)c(S(N)(=O)=O)cc1C` [Example 252, 4,5-Dimethyl-2-(2H-tetrazol-5-yl)benzenesulfonamide], the IC50 at VIM-1 (VIM-1 enzyme, CCF2-FA fluorescence assay; read-out: VIM-1 IC50) turned out to be 156000 nM; on NDM-1 (setting [6]), 591 nM; on IMP-1 (setting [7]), 112000 nM.
With `NS(=O)(=O)c1c(C(F)(F)F)ccc(-c2ccc(C3CCNCC3)cc2)c1-c1nn[nH]n1` [Example 269, 4′-(piperidin-4-yl)-2-(2H-tetrazol-5-yl)-4-(trifluoromethyl)-[1,1′-biphenyl]-3-sulfonamide], in assay [1], the “Klebsiella pneumoniae MITC95” value came out at 1.969 µM. Moreover, the “Escherichia coli MITC95” value in assay [2] is 0.7383 µM. In addition, the “Serratia marcescens MITC95” value in assay [3] worked out at 0.3125 µM. Further, the IC50 on NDM-1 (setting [6]) turned out to be 1.21 nM; at IMP-1 (setting [7]), 1.43 nM.
The like results for `CN1[C@@H]2CC[C@H]1CC(NCc1ccc(-c3cccc(S(N)(=O)=O)c3-c3nnn[nH]3)cc1)C2` (stereo partly drawn) [Example 366, 4′-({[(3-endo)-8-methyl-8-azabicyclo[3.2.1]oct-3-yl]amino}methyl)-2-(1H-tetrazol-5-yl)biphenyl-3-sulfonamide] were, in that order, 150 µM, 1.172 µM, 3.125 µM, 18.2 nM and 257 nM.
On the same counts, the results for `CC(C(=O)O)N(C)Cc1ccc(-c2cccc(S(N)(=O)=O)c2-c2nnn[nH]2)cc1` (stereo not shown) [Example 367, N-methyl-N-{[3′-sulfamoyl-2′-(1H-tetrazol-5-yl)biphenyl-4-yl]methyl}alanine] are 200 µM, 3.125 µM, 3.125 µM, 7.53 nM and 60.3 nM.
The like results for `CN1C2CCC1CC(NCc1ccc(-c3cccc(S(N)(=O)=O)c3-c3nnn[nH]3)cc1)C2` (stereo not shown) [Example 370, 4′-{[(8-methyl-8-azabicyclo[3.2.1]oct-3-yl)amino]methyl}-2-(1H-tetrazol-5-yl)biphenyl-3-sulfonamide] were, in that order, 200 µM, 1.563 µM, 1.563 µM, 7.35 nM and 45.8 nM.
As to `NS(=O)(=O)c1cccc(-c2nc(-c3ccncc3)cs2)c1-c1nnn[nH]1` [Example 407, 3-[4-(4-pyridyl)thiazol-2-yl]-2-(1H-tetrazol-5-yl)benzenesulfonamide], the “Klebsiella pneumoniae MITC95” value in assay [1] is >200 µM. Moreover, the “Escherichia coli MITC95” value in assay [2] worked out at 3.125 µM. For the same compound, in assay [3], the “Serratia marcescens MITC95” value came to 3.125 µM. The half-inhibitory concentration (IC50) is 25.8 nM at NDM-1 (setting [6]) and 115 nM on IMP-1 (setting [7]).
As for `NC1CCC(Cc2ccc(-c3ccc(C4CCNCC4)cc3)c(-c3nn[nH]n3)c2S(N)(=O)=O)CC1` (stereo not shown) [Example 455, 4-(((1s,4s)-4-aminocyclohexyl)methyl)-4′-(piperidin-4-yl)-2-(2H-tetrazol-5-yl)-[1,1′-biphenyl]-3-sulfonamide], the “Klebsiella pneumoniae MITC95” value in assay [1] worked out at 1.563 µM. Further, the “Escherichia coli MITC95” value in assay [2] came to 0.5859 µM. Also, in assay [3], the “Serratia marcescens MITC95” value turned out to be 0.3906 µM. For the same compound, the IC50 at IMP-1 (setting [7]) worked out at 6.29 nM.
On the same counts, the results for `NC1CCC(Cc2ccc(-c3ccc(C4CCNCC4)cc3)c(-c3nn[nH]n3)c2S(N)(=O)=O)CC1` (stereo not shown) [Example 463, 4-(((1r,4r)-4-aminocyclohexyl)methyl)-4′-(piperidin-4-yl)-2-(2H-tetrazol-5-yl)-[1,1′-biphenyl]-3-sulfonamide] are 0.7813 µM, 0.7813 µM, 0.1953 µM and 6.58 nM.
`NS(=O)(=O)c1c(C(F)(F)F)ccc(N2CC3(CCNCC3)C2)c1-c1nnn[nH]1` [Example 782]: the half-maximal inhibitory concentration (IC50) on VIM-1 (read-out: VIM-1 IC50; fluorescence assay with CCF2-FA substrate) worked out at 9.5 nM.
